Laboratory results published in article PMC11904984, “The Gut Microbiota‐Xanthurenic Acid‐Aromatic Hydrocarbon Receptor Axis Mediates the Anticolitic Effects of Trilobatin” (Advanced Science, 2025).

Target: T1, aromatic hydrocarbon receptor (AhR) (Homo sapiens, UniProt P35869)
T1 construct: His-tagged recombinant human AhR (MST); recombinant human AhR (SPR)
T1 sequence (P35869 11-848): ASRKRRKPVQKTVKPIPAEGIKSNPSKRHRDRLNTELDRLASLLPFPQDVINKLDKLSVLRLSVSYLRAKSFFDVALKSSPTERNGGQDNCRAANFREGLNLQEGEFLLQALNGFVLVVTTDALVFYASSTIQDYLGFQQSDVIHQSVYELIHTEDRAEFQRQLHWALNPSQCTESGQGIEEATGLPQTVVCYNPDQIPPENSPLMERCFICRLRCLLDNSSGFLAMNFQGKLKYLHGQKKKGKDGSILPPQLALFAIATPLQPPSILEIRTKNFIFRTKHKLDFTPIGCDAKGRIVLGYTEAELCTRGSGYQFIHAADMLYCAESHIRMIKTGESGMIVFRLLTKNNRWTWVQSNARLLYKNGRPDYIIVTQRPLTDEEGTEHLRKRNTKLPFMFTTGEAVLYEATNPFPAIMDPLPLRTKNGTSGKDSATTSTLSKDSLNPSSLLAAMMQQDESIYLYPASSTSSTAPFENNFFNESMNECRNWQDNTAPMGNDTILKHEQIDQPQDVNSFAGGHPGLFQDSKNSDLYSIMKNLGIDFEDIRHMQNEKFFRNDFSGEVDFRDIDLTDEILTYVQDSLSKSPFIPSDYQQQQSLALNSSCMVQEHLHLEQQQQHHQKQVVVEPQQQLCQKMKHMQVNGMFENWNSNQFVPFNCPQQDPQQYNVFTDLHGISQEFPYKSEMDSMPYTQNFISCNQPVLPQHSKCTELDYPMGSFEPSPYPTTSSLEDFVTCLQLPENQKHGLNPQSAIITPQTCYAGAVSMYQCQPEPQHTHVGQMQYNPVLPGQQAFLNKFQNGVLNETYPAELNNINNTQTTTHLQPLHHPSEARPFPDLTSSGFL
Assay: SPR (Biacore, CM5 chip, immobilized AhR); also MST, KD […]
Type: binding

Kd: 10.3 µM
SMILES: O=C(CCc1ccc(O)cc1)c1c(O)cc(O[C@@H]2O[C@H](CO)[C@@H](O)[C@H](O)[C@H]2O)cc1O [TLB, Trilobatin]
